Assays:
[1] = system: A549 cells; assay: Tail vein xenograft in SCID mice, A549 cells; assay type: in vivo, human
Source text: Fig. 3 NatD promotes lung cancer cell invasion in a xenograft mouse model. a (left) Representative bioluminescent (BLI) images acquired at the indicated time points after intravenous injection of SCID mice with Scr or NatD-KD A549 cells. NatD-KD2 cells were used because the KD2 shRNA produced a better knockdown effect. Pseudocolor heat-maps indicate intensity of bioluminescence from low (blue) to high (red) (D, day). (right) Normalized BLI signals of lung tumors of corresponding mice (n = 5 for each group) recorded at the indicated time points. Results are shown as mean ± s.d. from five mice. […] (right) Quantification of total lung bioluminescence from SCID mice as in (b) (n = 5 for each group). […]
(§1) All animal care and handling procedures were performed in accordance with the National Institutes of Health Guide for the Care and Use of Laboratory Animals, and were approved by the Institutional Review Board of Nanjing University (Nanjing, China). […] Lung nodules and progression were monitored and quantified using the bioluminescence system (Caliper IVIS Lumina XR) or by counting under a dissecting microscope. […] Mice were killed at day 28 or day 30 to collect lungs, and lung nodules in serial sections were quantified microscopically. […] Lung nodules and progression were monitored and quantified using the bioluminescence system (Caliper IVIS Lumina XR). […]

[2] = system: LLC cells; assay: Tail vein injection in C57BL/6 mice, LLC cells; assay type: in vivo, murine; conditions: 30 days, n = 5, vs Scr
Protocol: as §1, with “China). Female SCID mice and C57BL/6 mice (6–8 week old) were purchased from the Model Animal Research Center of Nanjing University (Nanjing, China), and were maintained under specific pathogen-free conditions at Nanjing University. The sample size was chosen with adequate power on the basis of the literature and our previous experience[46] and for each experiment it is indicated in the figure legend.” for “China).”, “XR). Mice were killed at day 14 or day 21 to collect lungs, and lung nodules in serial sections were quantified microscopically.” for “XR).”
Representative blots from three independent experiments. […] (bottom) Cell migration and invasion expressed as a percentage of Scr control. […]

NatD-KD2: Human NatD shRNA KD2: 5′-GGTTGAATGTCTCCATTGA-3′, lentiviral (shRNA lentiviral)
lung cancer growth signals (photon radiance) ([1]; BLI days 1-28, n = 5, vs Scr): significantly reduced
number of tumor nodules ([1]; day 28, n = 5, relative to Scr): decreased threefold
number of tumor nodules [2]: significantly fewer tumor nodules

— paper PMC5640650, “NatD promotes lung cancer progression by preventing histone H4 serine phosphorylation to activate Slug expression” (Nature Communications, 2017)
